# According to patent publication US8088799B2, “Pharmaceutical composition comprising a sodium hydrogen exchange inhibitor and an angiotensin converting enzyme inhibitor” (Sanofi-Aventis Deutschland GmbH, priority 2002, dated 2012):
# Entries after “also recorded” stand apart in the source; their conditions may differ.
# Tests used:
# [1] = tested on: spontaneously hypertensive rats (SHR); experiment: Survival rate of old spontaneously hypertensive rats under late-onset treatment; assay type: in vivo, rat; set-up: key to Holm-adjusted log rank test of survival vs. Cariporide / Holm-adjusted log rank test of survival vs. Placebo: * indicates significant difference; n.s. = not significant; conditions: for Median survival time: time from start of treatment (18th month of life) at which survival rate reaches 50%, Kaplan-Meier estimate
# Protocol: (§1) The pharmacological model of spontaneously hypertensive rat is generally accepted to be representative of human essential hypertony. In each experimental group initially 27 18-months old rats were employed. 3 months after the start of treatment, when the number of surviving animals in the placebo control group was only 7, an interim analysis was carried out on 7 animals from each group.
# The effect of a ramipril and cariporide combination product on the survival rate of rats with genetically related hypertension was investigated.
# (§2) In the experiment old hypertensive rats (age: 18 months) were treated with the NHE inhibitor cariporide or with a subthreshold dose of ramipril with no lowering effect on the blood pressure or with a combination of both substances. For each of the four treatments 27 18-month old rats were employed. A daily dose of 400 mg of cariporide per kg body weight (0.6% cariporide in standard rat feed) and 10 μg ramipril per kg body weight (in the drinking water) were given. 3 months after the start of treatment, when the number of surviving animals in the placebo control group was only 7, an interim analysis was carried out on 7 animals from each group. The remaining, still living rats per group were continuously treated as mentioned above since they were 18 months old.
# Thus, in the determination of the survival time […] 18-month old rats were employed in each experimental group (table 1).
# There are evidently distinct differences between placebo and product groups on the one hand and between the individual products and the combination after the experiment had lasted only 3-4 months.
# The statistical analysis was carried out essentially using the SAS/STAT procedure LIFETEST [SAS Institute Inc. (1989): SAS/STAT User's Guide, Version 6, 4th Edition, Volume 2, Cary, N.C.; SAS Institute Inc.]. The log rank tests were carried out pairwise on the experimental groups and adjusted to obtain a multiple significance level of 5% according to Holm [S. Holm (1979): A Simple Sequentally Rejective Multiple Test Procedure; Scand. J. Statist.; 6, pp 65-70].
# [2] = tested on: hearts of old spontaneously hypertensive rats; experiment: Interim analysis 3 months after start of treatment: heart function, myocardial fibrosis (Hyp/Arg), heart weight; assay type: in vivo, rat; conditions: 7 animals per group; for Force of myocardial contraction / function of the heart: compared with placebo control hearts, 3 months after start of treatment
# Protocol: as §1, §2
# As mentioned above, 3 months after the start of treatment, when the number of surviving animals in the placebo control group was only 7, an interim analysis was carried out on 7 animals from each group. The weight of the complete heart and the weight of the left and right ventricle were measured. Just so, the molar ratio of hydroxyproline and ariginine in the heart tissues was measured (measured via HPLC), which is a marker for the myocardial fibrosis. […] Hyp/Arg is the ratio of hydroxyproline to arginine and is regarded as a fibrosis marker.
# These effects are also reflected in the weights of the hearts (FIG. 3).
# [3] = tested on: spontaneously hypertensive rats; conditions: known for some time; cited from earlier work
# old normotensive rats = conditions: from WO 00/38661; cited from earlier work
# [4] = age 18 months (start of treatment), 20 rats per group, cariporide 400 mg/kg/day in feed, ramipril 10 μg/kg/day in drinking water
# [5] = age 19 months, of 20 rats per group
# [6] = age 20 months, of 20 rats per group
# [7] = age 21 months, of 20 rats per group
# [8] = age 22 months, of 20 rats per group
# [9] = age 23 months, of 20 rats per group
# [10] = age 24 months, of 20 rats per group
# [11] = age 25 months, of 20 rats per group
# [12] = age 26 months, of 20 rats per group
# [13] = age 27 months, of 20 rats per group
# [14] = age 28 months, of 20 rats per group
# [15] = age 29 months, of 20 rats per group
# [16] = pairwise comparison, multiple significance level of 5%
SMILES,"Number of surviving rats [1, 4]","Number of surviving rats [1, 5]","Number of surviving rats [1, 6]","Number of surviving rats [1, 7]","Number of surviving rats [1, 8]","Number of surviving rats [1, 9]","Number of surviving rats [1, 10]","Number of surviving rats [1, 11]","Number of surviving rats [1, 12]","Number of surviving rats [1, 13]","Number of surviving rats [1, 14]","Number of surviving rats [1, 15]","Holm-adjusted log rank test of survival vs. Placebo [1, 16]",Survival rate compared with the placebo treatment ([1]; result in words),Median survival time [1] [months],Force of myocardial contraction / function of the heart [2],also measured
"CC(C)c1ccc(C(=O)N=C(N)N)cc1S(C)(=O)=O.CS(=O)(=O)O [Cariporide, cariporide]",20,18,16,12,8,7,7,5,0,0,0,0,*,statistically significant improvement in the survival rate,4.0,significantly improved the function of the heart,"Difference in survival rates between cariporide and ramipril ([1]; result in words, chosen significance level): No significant differences; Weight of the hearts ([2]; 3 months after start of late treatment): significantly smaller weights of the hearts; Myocardial fibrosis (Hyp/Arg ratio of hydroxyproline to arginine) ([2]; 3 months after start of late treatment, HPLC): significantly reduced; also recorded: possible for a preexisting fibrosis to be reduced"
"CCOC(=O)[C@H](CCc1ccccc1)N[C@@H](C)C(=O)N1[C@H](C(=O)O)C[C@@H]2CCC[C@@H]21 [Ramipril, ramipril]",20,18,15,11,9,4,0,0,0,0,0,0,*,statistically significant improvement in the survival rate,4.0,significant reduction in the force of myocardial contraction,"Life span of spontaneously hypertensive rats [3]: significantly prolongs the life span; Holm-adjusted log rank test of survival vs. Cariporide [1, 16]: n.s.; Protective effect on pathological age-related organ changes (old normotensive rats): no protective effect at all"
